Reference: US20020166134A1, “Cardiomyocytes with enhanced proliferative potenial, and methods for preparing and using same” (priority 1999, published 2002)

Columns and labels:
cardiomyocytes = experiment: Tritiated thymidine incorporation assay of cardiomyocyte DNA synthesis (labeling index) in adult transgenic mice, with or without isoproterenol infusion; assay type: in vivo; conditions: for Left Atrium cardiomyocyte labeling index / Right Atrium cardiomyocyte labeling index / Ventricle cardiomyocyte labeling index: isoproterenol infusion 7 days
Text: A thymidine incorporation assay was used to determine if cardiomyocyte DNA synthesis persisted in adult transgenic MCH-CYCD2 animals. This testing also employed a second transgenic mouse line, designated MHC-nLAC. The MCH-nLAC mice express a nuclear localized β-galactosidase (βGAL) reporter gene exclusively in the cardiomyocytes (Soonpaa, M. H. et al., Science 264:98-101 (1994); Soonpaa, M. H. and L. J. Field, Am. J. Physiol. 272:H220-226 (1997)). Accurate cardiomyocyte tritiated thymidine labeling indices can be readily obtained with the MHC-nLAC animals simply by screening for co-localization of βGAL activity and silver grains in autoradiographs of 5-bromo-4-chloro-3-indolyl-B-D-galactoside (X-GAL) stained heart sections. To monitor the effect of cyclin D2 overexpression on cardiomyocyte DNA synthesis, MHC-CYCD2 mice were crossed with MHC-nLAC mice and animals carrying either the MHC-nLAC transgene alone or both transgenes were identified and sequestered. When the mice reached 11 weeks of age, they received a single injection of tritiated thymidine and were sacrificed four hours later. The hearts were removed, sectioned, stained with X-GAL and processed for autoradiography. […] In light of the sustained cardiomyocyte DNA synthesis observed in the adult MHC-CYCD2 mouse hearts, a series of experiments was initiated to ascertain how the transgenic myocardium would respond to cardiac hypertrophy. Osmotic mini-pumps (Model 2001, Alzet, Palo Alto, Calif., flow rate of 1 μl per hour) filled with saline or 0.028 g/ml isoproterenol in saline were implanted through a small longitudinal incision between the scapulae. 8 control mice (MHC-nLAC) and 8 cyclin D2 mice (MHC-nLAC/MHC-CYCD2 double transgenics) were used.
Prior to sacrifice, the experimental and control mice received a bolus injection of tritiated thymidine to permit assessment of cardiomyocyte DNA synthesis. After a 4 hour chase, the animals were sacrificed, and the hearts were harvested, cryoprotected, sectioned, stained with X-GAL and subjected to autoradiography. Once again, cardiomyocyte DNA synthesis was measured by scoring the presence of silver grains over βGAL positive nuclei. […] Isoproterenol treatment had no effect on cardiomyocyte DNA synthesis in the non-cyclin expressing control group.
Pulse chase experiments were employed to determine the fate of the cardiomyocytes synthesizing DNA. Once again, MHC-CYCD2 mice were crossed with MHC-nLAC mice. The MHC-nLAC mice express a nuclear localized β-GAL reporter exclusively in cardiomyocytes. Mice from this cross carrying either the MHC-nLAC transgene alone or both the MHC-nLAC and MHC-CYCD2 transgenes were identified and sequestered. At 11 weeks of age, myocardial hypertrophy was induced by isoproterenol infusion with Alzet minipumps (minipump model 2001, Alzet, Palo Alto Calif.; flow rate of 1 μl/hr, 0.028 g/ml isoproterenol). After 7 days of isoproterenol infusion, the control (MHC-nLAC) and experimental (MHC-nLAC/MHC-CYCD2 double transgenic) mice received a single injection of 3H-thymidine (200 uCi I.P. at 28 Ci/mM, Amersham, Arlington Heights, Ill.), and were sacrificed either 4 hours (pulse, FIG. 3A) or 72 hours (chase, FIG. 3B) later. The hearts were removed, cryoprotected in 30% sucrose, embedded and sectioned at 10 μm using standard histologic techniques. The sections were post-fixed in formaldehyde:glutaraldehyde (1:1) and overlaid with 1 mg/ml X-GAL, 5 mM potassium ferricyanide, 5 mM potassium ferrocyanide and 2 mM magnesium chloride in PBS. The sections were counter-stained with DAPI, and washed three times in PBS. After drying, stained slides were coated with photographic emulsion (Ilford L.4, Polysciences, Warrington Pa.) diluted 1:1 with water, drained, and placed in a light-tight box for four days at 4° C. Slides were then developed in Kodak D-19 (Rochester N.Y.) for four minutes, washed in water, and fixed in 30% sodium thiosulfate for at least four minutes. […]

[1] = tested on: cardiomyocytes from the left atria of MHC-CYCD2 transgenic mice; experiment: Number of cardiomyocyte nuclei (kariokinesis) in left atrial cultures with isoproterenol; assay type: cell-based; conditions: isoproterenol 1 μm, 72 hrs, left atria of day 14 MHC-CYCD2 mice, FIG. 5
Experimental: Left atria from neonatal day 14 MHC-CYCD2 transgenic mice were harvested and digested in PBS (37° C., 60 min) containing 0.17% collagenase (Type I, Worthington Biochemical, Freehold N.J.). Cells were then triturated with a Pasteur pipette and plated at a density of 1×10^5 cells per chamber slide. Cells were cultured in DMEM supplemented with 10% FBS. In some cases, the media also contained isoproterenol (1 μm). After 72 hrs., the slides were fixed in gluteraldehyde-formaldehyde (1:1) and overlaid with 1 mg/ml X-GAL, 5 mM potassium ferricyanide, 5 mM potassium ferrocyanide and 2 mM magnesium chloride in PBS. The number of blue nuclei were counted directly on a microscope.

cell cycle protein = experiment: Western blot analysis of cell cycle protein level changes in response to isoproterenol; assay type: in vivo, mice; design: key to Cyclin D2 protein level: higher numbers of the symbol “+” indicate higher levels of protein; the symbol “−” indicates none detected; conditions: 7 days infusion
Experimental: Western blots were used to analyze protein expression levels in adult MHC-CYCD2 mice and their non-transgenic litter mates. Hearts were homogenized in NP40 buffer (150 mM NaCl, 5 mM EDTA, 50 mM Tris-HCl pH 8.0, 1 μg/ml aprotinin, 1 μg/ml pepstatin, 1 μg/ml leupeptin, 50 μg/ml TLCK, 50 μg/ml PMSF, 100 μg/ml TPCK, 1% vol/vol Nonidet P-40). The homogenate was cleared by centrifugation at 40,000× g for 10 min, and the protein content of the supernatant was quantitated using a commercial assay (Bio-Rad, Richmond Calif.). Samples were separated by size on 10% polyacrylamide gels under denaturing conditions as described, and electro-blotted to nitrocellulose (Hoefer Scientific, San Francisco Calif.) membranes. The filters were stained with 0.1% naphthol blue-black in 45% methanol, 10% acetic acid to assess the efficiency of transfer. For Western analysis, nonspecific binding was blocked by incubation in block buffer (5% nonfat dry milk, 3% BSA, 0.1% Tween, 1×PBS) for 2 hr at room temperature. Commercial antibodies were used for each protein analyzed. Conditions (i.e. dilution, length of reaction, secondary antibody, etc) were according to the manufacturer's recommendations. The results are presented in Table 4 below, in which higher numbers of the symbol “+” indicate higher levels of protein, and the symbol “−” indicates none detected.
Myocardial hypertrophy was induced by isoproterenol infusion with Alzet minipumps in adult MHC-CYCD2 mice and their non-transgenic siblings (minipump model 2001, Alzet, Palo Alto Calif.; flow rate of 1 μl/hr, 0.028 g/ml isoproterenol). Hearts were harvested after 7 days of isoproterenol infusion and processed for Western blot analysis using procedures as described in Example 4. Again, higher numbers of the symbol “+” indicate higher levels of protein, and the symbol “−” indicates none detected.

Heart weight/body weight = assay type: in vivo, mice
Text: A thymidine incorporation assay was used to determine if cardiomyocyte DNA synthesis persisted in adult transgenic MCH-CYCD2 animals. This testing also employed a second transgenic mouse line, designated MHC-nLAC. The MCH-nLAC mice express a nuclear localized β-galactosidase (βGAL) reporter gene exclusively in the cardiomyocytes (Soonpaa, M. H. et al., Science 264:98-101 (1994); Soonpaa, M. H. and L. J. Field, Am. J. Physiol. 272:H220-226 (1997)). Accurate cardiomyocyte tritiated thymidine labeling indices can be readily obtained with the MHC-nLAC animals simply by screening for co-localization of βGAL activity and silver grains in autoradiographs of 5-bromo-4-chloro-3-indolyl-B-D-galactoside (X-GAL) stained heart sections. To monitor the effect of cyclin D2 overexpression on cardiomyocyte DNA synthesis, MHC-CYCD2 mice were crossed with MHC-nLAC mice and animals carrying either the MHC-nLAC transgene alone or both transgenes were identified and sequestered. When the mice reached 11 weeks of age, they received a single injection of tritiated thymidine and were sacrificed four hours later. The hearts were removed, sectioned, stained with X-GAL and processed for autoradiography. […]

[2] = Control mice, isoproterenol treated 7 days
[3] = MHC-CYCD2 mice, listed as Isoproterenol

CC(C)NCC(O)c1ccc(O)c(O)c1 (centres unmarked) [isoproterenol]
Left Atrium cardiomyocyte labeling index (cardiomyocytes; Control (MHC-nLAC) mice): 0%
Right Atrium cardiomyocyte labeling index (cardiomyocytes; Control (MHC-nLAC) mice): 0%
Ventricle cardiomyocyte labeling index (cardiomyocytes; Control (MHC-nLAC) mice): 0%
Left Atrial DNA Synth. (%) Iso(7 days) (cardiomyocytes; [2]): 0.00%
Ventricular DNA Synth. (%) Iso(7 days) (cardiomyocytes; [2]): 0.00%
Left Atrium cardiomyocyte labeling index (cardiomyocytes; MHC-CYCD2 mice): 7.28%
Ventricle cardiomyocyte labeling index (cardiomyocytes; MHC-CYCD2 mice): moderately decreased
Left Atrium cardiomyocyte labeling index (cardiomyocytes; [3]): 7.28%
Right Atrium cardiomyocyte labeling index (cardiomyocytes; [3]): 0.29%
Ventricle cardiomyocyte labeling index (cardiomyocytes; [3]): 0.11%
effect on cardiomyocyte DNA synthesis (cardiomyocytes; non-cyclin expressing control group, isoproterenol treatment): no effect
number of cardiomyocyte nuclei in the culture [1]: substantial increase
CDC2 protein level (cell cycle protein; NonTransgenic (+Iso)): + +
Cyclin D2 protein level (cell cycle protein; NonTransgenic (+Iso)): +
PCNA protein level (cell cycle protein; NonTransgenic (+Iso)): + +
CDC2 protein level (cell cycle protein; Transgenic (+Iso)): + + + +
Cyclin D2 protein level (cell cycle protein; Transgenic (+Iso)): + + + + +
PCNA protein level (cell cycle protein; Transgenic (+Iso)): + + + +
increase in heart weight/body weight (Heart weight/body weight; control mice, isoproterenol vs saline treated animals): 28%
increase in heart weight/body weight (Heart weight/body weight; cyclin expressing mice, continuous isoproterenol 7 days): 47.6%
